Drawing on patent US20080194546A1, “Pyrido-, Pyrazo- and Pyrimido-Pyrimidine Derivatives as mTOR Inhibitors” (KuDOS Pharmaceuticals Limited, priority 2005, published 2008), this text covers IC50 for 43 compounds.

Some results are limits rather than exact numbers.

In the first assay the test system is phosphorylation of Serine 473 in Akt in MDA-MB-468 cells. Description: In Vitro phospho-Ser473 Akt Assay (Acumen Explorer). The assay is classed as cell-based. To be noted: Homo sapiens, MDA-MB-468, read-out: IC50 values against mTOR (phospho-Ser473 Akt assay).
One may read the IC50 as the concentration at which inhibition is half-maximal. On to `C[C@@H]1CN(c2nc(N3CCOC[C@@H]3C)c3ccc(-c4ccncc4)nc3n2)C[C@H](C)O1` [Example 11ce], for which the IC50 was less than 11 µM.

`C[C@H]1COCCN1c1nc(N2CCOC[C@@H]2C)c2ccc(-c3ccc4nc[nH]c(=O)c4c3)nc2n1` [Example 11cl]: the IC50 was less than 11 µM.

Turning to `CC(C)Oc1ccc(-c2ccc3c(N4CCOC[C@@H]4C)nc(N4CCOC[C@@H]4C)nc3n2)cc1C(N)=O` [Example 11cw, 5-[2,4-bis-((S)-3-methyl-morpholin-4-yl)-pyrido[2,3-d]pyrimidin-7-yl]-2-isopropoxy-benzamide], the IC50 is less than 11 µM.

Regarding `C[C@@H]1CN(c2nc(N3CCOC[C@@H]3C)c3ccc(-c4ccccc4)nc3n2)C[C@H](C)O1` [Example 11j], the IC50 is less than 0.3 µM.

As to `COc1ccc(-c2ccc3c(N4CCOC[C@@H]4C)nc(N4CCOC[C@@H]4C)nc3n2)cn1` [Example 11n], the IC50 was less than 0.3 µM.

Take `C[C@H]1COCCN1c1nc(N2CCCC(CO)C2)nc2nc(-c3cccc(C(N)=O)c3)ccc12` (stereo partly shown) [Example 12d]: the IC50 is less than 11 µM.

For the compound `C[C@H]1COCCN1c1nc(N2CCC(c3ccncc3)CC2)nc2nc(-c3ccc(N)nc3)ccc12` [Example 12e], the IC50 is less than 11 µM.

On to `C[C@H]1COCCN1c1nc(N2CCC(CO)CC2)nc2nc(-c3cccc(C(N)=O)c3)ccc12` [Example 12h], for which the IC50 is less than 11 µM.

With `C[C@H]1COCCN1c1nc(N2CCOC[C@@H]2C)c2ccc(-c3cccc(C(=O)NCC(F)(F)F)c3)nc2n1` [Example 13f], the IC50 was less than 11 µM.

Regarding `C[C@H]1COCCN1c1nc(N2CCOC[C@@H]2C)c2ccc(-c3cccc(C(=O)N4CC[C@@H](O)C4)c3)nc2n1` [Example 13g], the IC50 is less than 11 µM.

In the case of `CCN(C)C(=O)c1cc(-c2ccc3c(N4CCOC[C@@H]4C)nc(N4CCOC[C@@H]4C)nc3n2)ccc1OC` [Example 13u], the IC50 was less than 11 µM.

For `C[C@H]1COCCN1c1nc(N2CCOC[C@@H]2C)c2ccc(-c3ccc(F)c(CNCCF)c3)nc2n1` [Example 14ab], the IC50 is less than 11 µM.

With `COCCN(C)Cc1cc(-c2ccc3c(N4CCOC[C@@H]4C)nc(N4CCOC[C@@H]4C)nc3n2)ccc1F` [Example 14aj], the IC50 was less than 11 µM.

Turning to `COc1ccc(-c2ccc3c(N4CCOC[C@@H]4C)nc(N4CCOC[C@@H]4C)nc3n2)cc1CNC1CC1` [Example 14al], the IC50 is less than 0.1 µM.

With `COc1ccc(-c2ccc3c(N4CCOCC4C)nc(N4CCOC[C@@H]4C)nc3n2)cc1CNC1CCOCC1` (stereo partly shown) [Example 14aq], the IC50 was less than 0.1 µM.

Turning to `COc1ccc(CCNCc2cc(-c3ccc4c(N5CCOCC5C)nc(N5CCOC[C@@H]5C)nc4n3)ccc2OC)cc1` (stereo partly shown) [Example 14bd], the IC50 was less than 0.1 µM.

Consider `COc1ccc(-c2ccc3c(N4CCOCC4C)nc(N4CCOC[C@@H]4C)nc3n2)cc1CNC1CCCCCCC1` (stereo partly shown) [Example 14bf], for which the IC50 was less than 0.1 µM.

Consider `C[C@H]1COCCN1c1nc(N2CCOC[C@@H]2C)c2ccc(-c3cccc(CS(C)(=O)=O)c3)nc2n1` [Example 14t], for which the IC50 was less than 11 µM.

With `C[C@H]1COCCN1c1nc(N2CCOC[C@@H]2C)c2ccc(-c3ccc(F)c(CNC4CC4)c3)nc2n1` [Example 14v], the IC50 was less than 11 µM.

Consider `CC(C)C(=O)NCc1cccc(-c2ccc3c(N4CCOC[C@@H]4C)nc(N4CCOC[C@@H]4C)nc3n2)c1` [Example 15d], for which the IC50 was less than 11 µM.

`CC(C)CC(=O)NCc1cccc(-c2ccc3c(N4CCOC[C@@H]4C)nc(N4CCOC[C@@H]4C)nc3n2)c1` [Example 15f]: the IC50 was less than 11 µM.

Take `CC(=O)N(C)Cc1ccc(-c2ccc3c(N4CCOC[C@@H]4C)nc(N4CCOC[C@@H]4C)nc3n2)cc1` [Example 15r]: the IC50 was less than 11 µM.

`CC(=O)NCc1cc(-c2ccc3c(N4CCOC[C@@H]4C)nc(N4CCOC[C@@H]4C)nc3n2)ccc1F` [Example 15t]: the IC50 was less than 11 µM.

In the case of `COCC(=O)NCc1cc(-c2ccc3c(N4CCOC[C@@H]4C)nc(N4CCOC[C@@H]4C)nc3n2)ccc1F` [Example 15u], the IC50 is less than 11 µM.

As to `CC(C)C(=O)NCc1cc(-c2ccc3c(N4CCOC[C@@H]4C)nc(N4CCOC[C@@H]4C)nc3n2)ccc1F` [Example 15w], the IC50 is less than 11 µM.

For the compound `C[C@H]1COCCN1c1nc(N2CCOC[C@@H]2C)c2ccc(-c3ccc(F)c(CNC(=O)C4CCC4)c3)nc2n1` [Example 15x], the IC50 is less than 11 µM.

As to `CC(C)CC(=O)NCc1cc(-c2ccc3c(N4CCOC[C@@H]4C)nc(N4CCOC[C@@H]4C)nc3n2)ccc1F` [Example 15y], the IC50 is less than 11 µM.

Regarding `C[C@H]1COCCN1c1nc(N2CCOC[C@@H]2C)c2ccc(-c3ccc(F)c(CNC(=O)C(F)(F)F)c3)nc2n1` [Example 15z], the IC50 was less than 11 µM.

As for `C[C@H]1COCCN1c1nc(N2CCOC[C@@H]2C)c2ccc(-c3ccc(CNC4CC4)o3)nc2n1` [Example 17e], the IC50 is less than 11 µM.

For `C[C@H]1COCCN1c1nc(N2CCOC[C@@H]2C)c2ccc(-c3ccc(CNc4cc[nH]n4)o3)nc2n1` [Example 17i], the IC50 is less than 11 µM.

Regarding `C[C@H]1COCCN1c1nc(N2CCOC[C@@H]2C)c2ccc(-c3ccc(CNCC(N)=O)o3)nc2n1` [Example 17j], the IC50 is less than 11 µM.

As for `Cc1ccc(-c2cnc3c(N4CCOC[C@@H]4C)nc(N4C[C@@H](C)O[C@@H](C)C4)nc3n2)cc1` [Example 22b], the IC50 was less than 11 µM.

As to `COC(=O)[C@@H]1C[C@@H](O)CN1c1nc(N2CCOC[C@@H]2C)c2ccc(-c3ccc(OC)c(CO)c3)nc2n1` [Example 28aa], the IC50 was less than 11 µM.

Consider `COc1ccc(-c2ccc3c(N4CCOC[C@@H]4C)nc(N4CCC5CCCCC5C4)nc3n2)cc1CO` (stereo partly shown) [Example 28ag], for which the IC50 is less than 11 µM.

In the case of `COc1ccc(-c2ccc3c(N4CCOC[C@@H]4C)nc(N4CCC(N5CCCC5)CC4)nc3n2)cc1CO` [Example 28ai], the IC50 was less than 11 µM.

As for `COc1ccc(-c2ccc3c(N4CCOC[C@@H]4C)nc(N4CCC(Cc5ccccc5)CC4)nc3n2)cc1CO` [Example 28al], the IC50 was less than 11 µM.

Turning to `COC(=O)c1cncn1-c1nc(N2CCOC[C@@H]2C)c2ccc(-c3ccc(OC)c(CO)c3)nc2n1` [Example 28az], the half-maximal inhibitory concentration (IC50) is less than 11 µM.

`COc1ccc(-c2ccc3c(N4CCOC[C@@H]4C)nc(NCCO)nc3n2)cc1CO` [Example 28bs]: the IC50 is less than 11 µM.

Take `CNCCNc1nc(N2CCOC[C@@H]2C)c2ccc(-c3ccc(OC)c(CO)c3)nc2n1` [Example 28bv]: the IC50 was less than 11 µM.

Still in this assay, the particulars now being: Homo sapiens; MDA-MB-468 cells, 2 hours; read-out: IC50, phospho-Ser473 Akt assay (cellular IC50, measured by pAkt).
`C[C@H]1COCCN1c1nc(N2CCOC[C@@H]2C)c2ccc(-c3ccc4c(c3)C(=O)NCCN4)nc2n1` [Example 11df, 7-[2,4-bis-((S)-3-methyl-morpholin-4-yl)-pyrido[2,3-d]pyrimidin-7-yl]-1,2,3,4-tetrahydro-benzo[e][1,4]diazepin-5-one]: the IC50 was 0.381 µM.

Take `C[C@H]1COCCN1c1nc(N2CCOC[C@@H]2C)c2ccc(-c3cccc(N)c3)nc2n1` [Example 11dr, 3-[2,4-Bis-((S)-3-methyl-morpholin-4-yl)-pyrido[2,3-d]pyrimidin-7-yl]-phenylamine]: the 50% inhibitory concentration (IC50) is 0.0141 µM.

Regarding `C[C@H]1COCCN1c1nc(N2CCOC[C@@H]2C)c2ccc(-c3ccc4[nH]nc(N)c4c3)nc2n1` [Example 11ds, 5-[2,4-Bis-((S)-3-methyl-morpholin-4-yl)-pyrido[2,3-d]pyrimidin-7-yl]-1H-indazol-3-ylamine], the IC50 was determined as 0.0607 µM.

Turning to `CC(C)S(=O)(=O)Nc1cccc(-c2ccc3c(N4CCOC[C@@H]4C)nc(N4CCOC[C@@H]4C)nc3n2)c1` [Example 25b], the IC50 is 0.505 µM.
